One test concerns thymocytes. Put plainly: Cell viability of freshly isolated thymocytes (PI staining, flow cytometry). The test is classed as cell-based. The settings on record: Homo sapiens, Thymocyte, 48 h. On the procedure:
Purified populations of human blood monocytes were prepared as previously described by differential density centrifugation on Ficoll and Percoll gradients (see Allavena, P., Piemonti, L., Longoni, D., Bernasconi, S., Stoppacciaro, A., Ruco, L., and Mantovani, A. IL-10 prevents the differentiation of monocytes to dendritic cells but promotes their maturation to macrophages. Eur J Immunol, 28: 359-369, 1998). […] Human thymocytes were isolated from resected thymus from pediatric patients undergoing surgery. Thymocytes were obtained by teasing and isolated on Percoll gradient.
Cell viability was analyzed by DNA content in Flow Cytometry
Cells exposed to treatments were fixed with ethanol 70%, washed in PBS and stained with propidium iodide (PI) solution containing 10 ug/ml PI in PBS and 25 μl RNAse 10,000 units, overnight in the dark. PI incorporation was evaluated on at least 20,000 cells/sample using a FACS Calibur instrument (Becton Dickinson, Sunnyvale, Calif., USA), with a bandpass filter at 620 nm. Apoptosis was detected by staining with AnnexinV and PI. FACS analysis was performed using a bandpass filter 530 and 620 nm for green (AnnexinV) and red (PI) fluorescence respectively, in combination with a […] dichroic mirror.
Purified preparations of blood monocytes, lymphocytes and thymocytes were cultured with different concentrations of ecteinascidin 743 for 48 h. […]

In test [1] the test system is Tumour-Associated Macrophages (TAM). In words: Cell viability of Tumour-Associated Macrophages from ovarian cancer ascites. It is filed as cell-based. The settings on record: Homo sapiens, Macrophage; 10 nM, 48 h, three patients. An excerpt: (§1) Tumour-associated macrophages (TAM) and tumour cells were isolated from the ascitic fluid of patients with diagnosed ovarian adenocarcinoma, admitted to the Clinic of Obstetrics and Gynecology of the University of Milan-Bicocca, S Gerardo Hospital. Cells contained in the ascitic fluid were centrifuged and isolated by differential density gradients of Ficoll and Percoll, and plastic adherence as previously described (see Allavena, P., Peccatori, F., Maggioni, D., Erroi, A., Sironi, M., Colombo, N., Lissoni, A., Galazka, A., Meiers, W., Mangioni, C., et al. Intraperitoneal recombinant gamma-interferon in patients with recurrent ascitic ovarian carcinoma: modulation of cytotoxicity and cytokine production in tumour-associated effectors and of major histocompatibility antigen expression on tumour cells. Cancer Res, 50: 7318-7323, 1990). Purity of TAM and tumour cell preparations was usually>65±10% as defined by morphology and phenotype analysis. Cells were treated with ecteinascidin 743 at the indicated concentrations and cultured for 1-5 days, as specified in figure legends. At the end of the incubation period cells were collected, washed and used for DNA analysis or functional assays.
Apoptosis was detected by staining with AnnexinV and PI.
We also tested Tumour-Associated Macrophages (TAM) isolated from the ascites of non-treated ovarian adenocarcinoma patients. […]

For another test, the system named is monocytes. Put plainly: Monocytopenia in cancer patients after in vivo treatment (blood formula). The settings on record: of 9 patients; decrease = 25% inhibition in at least one cycle; % of leukocytes and monocytes/ul of blood. Also noted: species or system human. From the text:
We also investigated whether the in vivo treatment with ecteinascidin 743 caused a measurable monocytopenia in cancer patients. Monocyte values were obtained from blood formula during routine clinical analysis.

The subject of test [2] is CCL2. In words: CCL2 production by TAM (ELISA). It is filed as cell-based, human. The settings on record: 16 h, n=4.
Source text: as §1, with “At the end of the incubation period cells were collected, washed and used for DNA analysis or functional assays.” left out
(§2) Monocytes, macrophages and TAM were stimulated with 100 ng/ml LPS to induce maximal cytokine production. Determination of cytokines CCL2, TNF and IL-6 was measured by specific ELISA following the manufacturer's instructions. […]
On the technique in general: ELISA stands for enzyme-linked immunosorbent assay.

Test [3] relates to CCL2. Put plainly: Constitutive CCL2 production by freshly isolated ovarian tumour cells (ELISA). The settings on record: 16 h. It is filed as cell-based, human.
Source text: as §1, with “At the end of the incubation period cells were collected, washed and used for DNA analysis or functional assays.” left out
as §2

Another test has as its system IL-6. In words: IL-6 production by LPS-stimulated monocytes (ELISA). The test is classed as cell-based. The settings on record: Homo sapiens, Monocyte; 5 nM, n=2; read-out: overall inhibition of IL-6 production, monocytes. The method, then: Supernatants of untreated cells or cells treated with ecteinascidin 743 or other anti-neoplastic agents were collected after 24 h culture and frozen. Monocytes, macrophages and TAM were stimulated with 100 ng/ml LPS to induce maximal cytokine production. Determination of cytokines CCL2, TNF and IL-6 was measured by specific ELISA following the manufacturer's instructions.
Monocytes and in vitro differentiated macrophages were stimulated with LPS (100 ng/ml). After 1 h LPS stimulation they were treated with ecteinascidin 743. After 16 h incubation, cell supernatants were harvested and tested in ELISA. Under these treatment conditions cell viability was usually >85% for concentrations up to 5 nM. […] Mean inhibition at 5 nM, for monocytes, was 65% (range 50-80%, n=5) and was 50% (range 25-75%, n=5) for in vitro differentiated macrophages. Results are mean+/−SE of 3-5 experiments
We also tested two other cytokines, IL-6 and TNF, produced by macrophages and tumour cells, which have inflammatory properties and also act as growth factors for some tumours. IL-6 production was always reduced after ecteinascidin 743 treatment, with an overall inhibition at 5 nM of 54% (range 51-57%, n=2) and 69% (range 66-72%, n=2), in monocytes and macrophages, respectively (FIG. 6B). […]

Test [4] deals with TNF. In words: TNF production by LPS-stimulated monocytes (ELISA). It is filed as cell-based, human. The settings on record: LPS 100 ng/ml, 16 h incubation. On the procedure: (§3) Monocytes, macrophages and TAM were stimulated with 100 ng/ml LPS to induce maximal cytokine production. Determination of cytokines CCL2, TNF and IL-6 was measured by specific ELISA following the manufacturer's instructions.
(§4) To verify whether the inhibitory effect of ecteinascidin 743 on cytokine production was at the transcriptional level, we analyzed mRNA of CCL2 and TNF from LPS-stimulated macrophages by real time-PCR of CCL2 and TNF transcripts in LPS-stimulated monocytes exposed to ecteinascidin 743.
CCL2 and TNF production by LPS-stimulated monocytes treated with the indicated doses of the anti-tumor agents was also tested. […] […] None of these compounds interfered with the production of TNF.

The test system of test [5] is TNF. Put plainly: TNF production by LPS-stimulated in vitro differentiated macrophages (ELISA). The test is classed as cell-based, human. The settings on record: LPS 100 ng/ml, 16 h incubation. The method, then: as §3, §4
For test [6], the system named is TNF. In words: TNF production by LPS-stimulated TAM (ELISA). It is filed as cell-based, human. The settings on record: LPS 100 ng/ml, 16 h incubation, up to 10 nM. On the procedure: as §3, §4
The subject of a further test is TNF mRNA. In words: Real time-PCR of TNF transcripts in LPS-stimulated monocytes. It is filed as cell-based, human.
Source text: as §4

Molecules are shown by their SMILES. Bounds are passed on as bounds.

For orientation: IC50 means the concentration at which inhibition is half-maximal. Broadly, the mortality is the percentage killed. Lower therefore signals more survivors. A word on the inhibition: it is the share of the control response that was lost under treatment.

For `COc1cc2c(cc1O)CCN[C@]21CS[C@@H]2c3c(OC(C)=O)c(C)c4c(c3[C@H](COC1=O)N1[C@@H]2[C@H]2c3c(cc(C)c(OC)c3O)C[C@@H]([C@@H]1O)N2C)OCO4` [ecteinascidin 743], the IC50 with thymocytes was greater than 40 nM. This compound yielded a mortality at 0.01 µM in test [1] of 40 to 70%. The “patients showing a decrease in the number of monocytes” value with monocytes was 7. For the same compound, the “reduction of LPS-stimulated production of CCL2 by TAM” value in the test with CCL2 [2] (LPS 100 ng/ml) is on record as 50%. Further, in the test with CCL2 [2] (no LPS), the “reduction of constitutive production of CCL2 by TAM” value is 43%. Moreover, in the test with CCL2 [3], the “constitutive production of CCL2 by freshly isolated tumour cells” value is “reduced”. The inhibition at 0.005 µM in the test with IL-6 is 54%. Also, the “production of TNF by monocytes” value in the test with TNF [4] was “never inhibited”. The “production of TNF by macrophages” value in the test with TNF [5] is “never inhibited”. In addition, the “production of TNF by TAM” value with TNF [6] was “never inhibited”. In the test with TNF mRNA, the “TNF mRNA” value was “unaffected”.

These data come from patent US20080076772A1, “Anti-Inflammatory Agents” (Pharma Mar S.A. Sociedad Unipersonal, priority 2004, published 2008).
